The values below come from US3984432A, “Color photographic recording material” (priority 1973, dated 1976).

This data set in a line: Absorption maximum after colour development in a photographic silver halide layer according to Use Example I. As to conditions: pyrazolone coupling agents. The data set is classed as physicochemical. As for the experimental part: The compounds of the formulae which follow are prepared according to methods which are in themselves known, from the corresponding 4-equivalentcoupling agents (the corresponding compounds with hydrogen in the position marked with *, in place of the substituents drawn). With regard to methods of manufacture, compare DT-OS or DT-AS 1,236,332, 2,043,271, 1,547,672 or 1,187,477. Next to the formula, the absorption maximum in nm is specified in each case (see footnote to Table I). ##SPC8##
*)After colour development of the coupling agents in a photographic silve
halide layer according to Use Example I
0.3 mmol of coupling agent of the formula (215) is dissolved in 2.0 ml of tricresyl phosphate/methylene chloride (3:7). The methylene chloride is evaporated off, 6.0 ml of an 8% strength aqueous solution of sodium isopropylnaphthalene-sulphonate, 20.0 ml of 6% strength gelatine solution and 3.4 ml of water are added and the mixture is adjusted to pH 6.5 and emulsified for 5 minutes by means of an ultrasonic apparatus with an output of 100 watt.
5.0 of coupling agent emulsion freshly treated with ultrasonics, 3.3 ml of silver bromide emulsion of pH 6.5, containing 1.4% of silver and 6.0% of gelatine, 2.0 ml of 1% strength aqueous solution of the hardener of the formula [formula] and 1.7 ml of water are mixed with one another and cast at 40°C on a substrated glass plate of size 13 cm × 18 cm. After solidifying at 10° C, the plate is dried in a drying cabinet with circulating air at 32° C.
A strip cut to 4.0 cm × 6.5 cm is exposed to 500 Lux/cm^2 under a step wedge for 2 seconds and is subsequently treated at 24° C as follows: […]

In the case of `CCOP(=O)(CCCOc1cc(OCCCP(=O)(OCC)OCC)cc(C(=O)NC2=NN(c3c(Cl)cc(Cl)cc3Cl)C(=O)C2)c1)OCC` [(209)], the “Abs.max., first of two maxima (subsidiary maximum)” value (shortened to “Abs.max., first of two maxima”) amounted to 436 nm and the “Abs.max., second of two maxima (absorption maximum)” value (“Abs.max., second of two maxima” for short) is reported as 540 nm.
For the molecule `CC(C)OP(=O)(CCCOc1cccc(C(=O)Nc2ccc(C(=O)NC3=NN(c4c(Cl)cc(Cl)cc4Cl)C(=O)C3)cc2)c1)OC(C)C` [(210)], the “Abs.max., first of two maxima” value was 434 nm and the “Abs.max., second of two maxima” value turned out to be 543 nm.
As to `CCCCOP(=O)(CCCOc1cccc(C(=O)Nc2ccc(C(=O)NC3=NN(c4c(Cl)cc(Cl)cc4Cl)C(=O)C3)cc2)c1)OCCCC` [(211)], the “Abs.max., first of two maxima” value is on record as 434 nm and the “Abs.max., second of two maxima” value came to 543 nm.
The matching figures for `CCOP(=O)(CCCCCOc1cc(OCCCCCP(=O)(OCC)OCC)cc(C(=O)Nc2ccc(C(=O)NC3=NN(c4c(Cl)cc(Cl)cc4Cl)C(=O)C3)cc2)c1)OCC` [(212)]: 434 nm and 544 nm.
As for `CCOP(=O)(CCCCCOc1cccc(C(=O)NC2=NN(c3c(Cl)cc(Cl)cc3Cl)C(=O)C2)c1)OCC` [(213)], the “Abs.max., first of two maxima” value is listed as 434 nm and the “Abs.max., second of two maxima” value was determined as 537 nm.
The matching figures for `CCOP(=O)(CCCCCOc1cc(OCCCCCP(=O)(OCC)OCC)cc(C(=O)NC2=NN(c3c(Cl)cc(Cl)cc3Cl)C(=O)C2)c1)OCC` [(214)]: 432 nm and 540 nm.
The matching figures for `CCCCC(CC)COP(=O)(CCCOc1cccc(C(=O)Nc2ccc(C(=O)NC3=NN(c4c(Cl)cc(Cl)cc4Cl)C(=O)C3)cc2)c1)OCC(CC)CCCC` (stereo not drawn) [(215)]: 434 nm and 540 nm.
With `CCOP(=O)(CCCOc1cc(OCCCP(=O)(OCC)OCC)cc(C(=O)Nc2cccc(C(=O)NC3=NN(c4c(Cl)cc(Cl)cc4Cl)C(=O)C3)c2)c1)OCC` [(216)], the “Abs.max., first of two maxima” value stood at 432 nm and the “Abs.max., second of two maxima” value is 546 nm.
For `CC(C)OP(=O)(CCCOc1cccc(C(=O)NC2=NN(c3c(Cl)cc(Cl)cc3Cl)C(=O)C2)c1)OC(C)C` [(217)], in that order: 435 nm and 538 nm.
The matching figures for `CCCCOP(=O)(CCCOc1cc(OCCCP(=O)(OCCCC)OCCCC)cc(C(=O)Nc2ccc(C(=O)NC3=NN(c4c(Cl)cc(Cl)cc4Cl)C(=O)C3)cc2)c1)OCCCC` [(218)]: 436 nm and 542 nm.
On to `CCCCC(CC)COP(=O)(CCCOc1cccc(C(=O)Nc2cccc(C(=O)NC3=NN(c4c(Cl)cc(Cl)cc4Cl)C(=O)C3)c2)c1)OCC(CC)CCCC` (stereo not drawn) [(219)], for which the “Abs.max., first of two maxima” value is on record as 436 nm and the “Abs.max., second of two maxima” value was determined as 542 nm.
The matching figures for `CCCCOP(=O)(CCCOc1cccc(C(=O)Nc2cccc(C(=O)NC3=NN(c4c(Cl)cc(Cl)cc4Cl)C(=O)C3)c2)c1)OCCCC` [(220)]: 434 nm and 544 nm.
The matching figures for `CCCCOP(=O)(CCCOc1cc(OCCCP(=O)(OCCCC)OCCCC)cc(C(=O)NC2=NN(c3c(Cl)cc(Cl)cc3Cl)C(=O)C2)c1)OCCCC` [(221)]: 436 nm and 538 nm.
In the case of `CCCCOP(=O)(CCCOc1cc(OCCCP(=O)(OCCCC)OCCCC)cc(C(=O)Nc2cccc(C(=O)NC3=NN(c4c(Cl)cc(Cl)cc4Cl)C(=O)C3)c2)c1)OCCCC` [(222)], the “Abs.max., first of two maxima” value is 434 nm and the “Abs.max., second of two maxima” value is 544 nm.
On to `CCOP(=O)(CCCOc1cccc(C(=O)Nc2cccc(C(=O)NC3=NN(c4ccccc4)C(=O)C3)c2)c1)OCC` [(223)], for which the “Abs.max., first of two maxima” value worked out at 440 nm and the “Abs.max., second of two maxima” value is given as 534 nm.
The matching figures for `CCCCOP(=O)(CCCOc1cccc(C(=O)Nc2cccc(C(=O)NC3=NN(c4ccccc4)C(=O)C3)c2)c1)OCCCC` [(224)]: 440 nm and 534 nm.
The matching figures for `CCCCC(CC)COP(=O)(CCCOc1cccc(C(=O)Nc2cccc(C(=O)NC3=NN(c4ccccc4)C(=O)C3)c2)c1)OCC(CC)CCCC` (stereo not drawn) [(225)]: 440 nm and 532 nm.
With `CCOP(=O)(CCCCCOc1cc(OCCCCCP(=O)(OCC)OCC)cc(C(=O)Nc2cccc(C(=O)NC3=NN(c4ccccc4)C(=O)C3)c2)c1)OCC` [(226)], the “Abs.max., first of two maxima” value turned out to be 439 nm and the “Abs.max., second of two maxima” value is listed as 534 nm.
The matching figures for `CCOP(=O)(CCCCCOc1cccc(C(=O)Nc2cccc(C(=O)NC3=NN(c4ccccc4)C(=O)C3)c2)c1)OCC` [(227)]: 438 nm and 532 nm.
The matching figures for `CCOP(=O)(CCCOc1cc(OCCCP(=O)(OCC)OCC)cc(C(=O)Nc2cccc(C(=O)NC3=NN(c4ccccc4)C(=O)C3)c2)c1)OCC` [(228)]: 438 nm and 533 nm.
Take `CCCCOP(=O)(CCCOc1cc(OCCCP(=O)(OCCCC)OCCCC)cc(C(=O)Nc2cccc(C(=O)NC3=NN(c4ccccc4)C(=O)C3)c2)c1)OCCCC` [(229)]: the “Abs.max., first of two maxima” value came to 440 nm and the “Abs.max., second of two maxima” value was 532 nm.
For `CCOP(=O)(CCCCCOc1cccc(C(=O)Nc2cccc(C(=O)NC3=NN(c4c(Cl)cc(Cl)cc4Cl)C(=O)C3)c2)c1)OCC` [(230)], the “Abs.max., first of two maxima” value is 434 nm and the “Abs.max., second of two maxima” value came to 544 nm.
The matching figures for `CC(C)OP(=O)(CCCOc1cccc(C(=O)Nc2cccc(C(=O)NC3=NN(c4c(Cl)cc(Cl)cc4Cl)C(=O)C3)c2)c1)OC(C)C` [(232)]: 434 nm and 541 nm.
In the case of `CCCCC(CC)COP(=O)(CCCOc1cc(OCCCP(=O)(OCC(CC)CCCC)OCC(CC)CCCC)cc(C(=O)Nc2ccc(C(=O)NC3=NN(c4c(Cl)cc(Cl)cc4Cl)C(=O)C3)cc2)c1)OCC(CC)CCCC` (stereo not drawn) [(234)], the “Abs.max., first of two maxima” value was found to be 434 nm and the “Abs.max., second of two maxima” value came out at 540 nm.
For `CCCCC(CC)COP(=O)(CCCOc1cc(OCCCP(=O)(OCC(CC)CCCC)OCC(CC)CCCC)cc(C(=O)Nc2cccc(C(=O)NC3=NN(c4ccccc4)C(=O)C3)c2)c1)OCC(CC)CCCC` (stereo not drawn) [(235)], in that order: 440 nm and 532 nm.
Regarding `CCCCOP(=O)(CCCOc1cccc(C(=O)NC2=NN(c3c(Cl)cc(Cl)cc3Cl)C(=O)C2)c1)OCCCC` [(237)], the “Abs.max., first of two maxima” value is on record as 432 nm and the “Abs.max., second of two maxima” value was found to be 536 nm.
The matching figures for `CC(C)OP(=O)(CCCOc1cc(OCCCP(=O)(OC(C)C)OC(C)C)cc(C(=O)Nc2cccc(C(=O)NC3=NN(c4ccccc4)C(=O)C3)c2)c1)OC(C)C` [(238)]: 440 nm and 530 nm.
The matching figures for `CC(C)OP(=O)(CCCCCOc1cc(OCCCCCP(=O)(OC(C)C)OC(C)C)cc(C(=O)Nc2cccc(C(=O)NC3=NN(c4ccccc4)C(=O)C3)c2)c1)OC(C)C` [(239)]: 440 nm and 532 nm.
Turning to `CC(C)OP(=O)(CCCOc1cc(OCCCP(=O)(OC(C)C)OC(C)C)cc(C(=O)Nc2cccc(C(=O)NC3=NN(c4c(Cl)cc(Cl)cc4Cl)C(=O)C3)c2)c1)OC(C)C` [(240)], the “Abs.max., first of two maxima” value is 434 nm and the “Abs.max., second of two maxima” value is listed as 544 nm.
Turning to `CC(C)OP(=O)(CCCCCOc1cc(OCCCCCP(=O)(OC(C)C)OC(C)C)cc(C(=O)Nc2cccc(C(=O)NC3=NN(c4c(Cl)cc(Cl)cc4Cl)C(=O)C3)c2)c1)OC(C)C` [(243)], the “Abs.max., first of two maxima” value was 434 nm and the “Abs.max., second of two maxima” value came out at 544 nm.
For `CC(C)OP(=O)(CCCCCOc1cccc(C(=O)Nc2ccc(C(=O)NC3=NN(c4c(Cl)cc(Cl)cc4Cl)C(=O)C3)cc2)c1)OC(C)C` [(244)], in that order: 434 nm and 542 nm.
With `CC(C)OP(=O)(CCCCCOc1cccc(C(=O)Nc2cccc(C(=O)NC3=NN(c4c(Cl)cc(Cl)cc4Cl)C(=O)C3)c2)c1)OC(C)C` [(245)], the “Abs.max., first of two maxima” value amounted to 434 nm and the “Abs.max., second of two maxima” value was determined as 542 nm.
With `CC(C)OP(=O)(CCCCCOc1cccc(C(=O)Nc2cccc(C(=O)NC3=NN(c4ccccc4)C(=O)C3)c2)c1)OC(C)C` [(246)], the “Abs.max., first of two maxima” value was 440 nm and the “Abs.max., second of two maxima” value is given as 532 nm.
